The text below walks through data of patent US7348318B2, “α-Amino-N-(diaminophosphinyl)lactam derivatives” (priority 2002, dated 2008).

One data set deals with T1, dipeptidyl peptidase IV (Rattus norvegicus, UniProt P14740).
T1 construct: partially purified from rat kidney homogenate by ammonium sulfate fractionation; from tissue; host or cells: rat kidney
As to the kind of experiment: biochemical. To be noted: glycyl·prolyl·β-naphthylamide, pH 7.2, 37° C., 1 hour, read-out: Dipeptidyl peptidase IV 50% inhibition activity value (converted).

The test system of data set [1] is ICR strain male mice (Crj:CD-1). As to the kind of experiment: Test for evaluating efficacy in drug-induced leukopenia (cyclophosphamide). It counts as in vivo. To be noted: for number of leukocytes: cyclophosphamide 200 mg/kg i.p. Day 0. How it is done:
The efficacy of the compound of Example 1 in drug-induced leukopenia was evaluated according to the method of Okabe et al. (Yakuri to Chiryo (Pharmacology and Treatment), Vol. 19, No. 6, p. 55, 1991).
ICR strain male mice (Crj:CD-1) aged 8 weeks were used in the test. The animals were divided into three groups of 3 or 4 animals each. On Day 0, cyclophosphamide was intraperitoneally administered once to all the groups in a dose of 200 mg/kg. From the next day, the following were intravenously and repeatedly administered to the groups, respectively, for 5 days (Days 1 to 5); a first group (a control group): physiological saline, a second group: the compound of Example 1 (30 mg/kg/day), and a third group: the compound of Example 1 (100 mg/kg/day). Blood was drawn from the orbital vein on Day 0 (before the administration of cyclophosphamide) and Days 2, 4, 6, 8 and 10, and the number of leukocytes was periodically measured to investigate the leukocyte-increasing effect of the compound of Example 1 on leukopenia induced by cyclophosphamide.

Data set [2] has the same test system. The data set can be described thus: Test for investigating the increase of leukocytes and the decrease of platelets in normal mice. It is filed as in vivo. Conditions: for Number of platelets / number of leukocytes: blood drawn day after last administration. How it is done: ICR strain male mice (Crj:CD-1) aged 8 weeks were used in the test. The animals were divided into 5 groups of 3 to 4 animals each. The following were intravenously and repeatedly administered to the groups, respectively, for 5 days; a first group: physiological saline as solvent, a second group: the compound of Example 45 (hydrochloride of the compound of Example 1) (10 mg/kg/day), a third group: the compound of Example 45 (50 mg/kg/day), a fourth group: the compound of Example 45 (250 mg/kg/day), and a fifth group: sulphostin (WO 99/25719 and JP-A-2000-327689; (3S, PR)-3-amino-1-amino(sulfoamino)phosphinyl-2-piperidone) (50 mg/kg/day). On the day subsequent to the last day in the administration period, blood was drawn from the abdominal aorta under anesthesia and the number of leukocytes and the number of platelets were measured.

[3] abbreviates: normal mice, 10 mg/kg/day i.v. for 5 days.
The mark [4] stands for this setting: normal mice, 50 mg/kg/day i.v. for 5 days.
[5] abbreviates: normal mice, 250 mg/kg/day i.v. for 5 days.

Where a name gives a salt, the structure may show the parent alone.

T1 sequence (P14740 whole entry): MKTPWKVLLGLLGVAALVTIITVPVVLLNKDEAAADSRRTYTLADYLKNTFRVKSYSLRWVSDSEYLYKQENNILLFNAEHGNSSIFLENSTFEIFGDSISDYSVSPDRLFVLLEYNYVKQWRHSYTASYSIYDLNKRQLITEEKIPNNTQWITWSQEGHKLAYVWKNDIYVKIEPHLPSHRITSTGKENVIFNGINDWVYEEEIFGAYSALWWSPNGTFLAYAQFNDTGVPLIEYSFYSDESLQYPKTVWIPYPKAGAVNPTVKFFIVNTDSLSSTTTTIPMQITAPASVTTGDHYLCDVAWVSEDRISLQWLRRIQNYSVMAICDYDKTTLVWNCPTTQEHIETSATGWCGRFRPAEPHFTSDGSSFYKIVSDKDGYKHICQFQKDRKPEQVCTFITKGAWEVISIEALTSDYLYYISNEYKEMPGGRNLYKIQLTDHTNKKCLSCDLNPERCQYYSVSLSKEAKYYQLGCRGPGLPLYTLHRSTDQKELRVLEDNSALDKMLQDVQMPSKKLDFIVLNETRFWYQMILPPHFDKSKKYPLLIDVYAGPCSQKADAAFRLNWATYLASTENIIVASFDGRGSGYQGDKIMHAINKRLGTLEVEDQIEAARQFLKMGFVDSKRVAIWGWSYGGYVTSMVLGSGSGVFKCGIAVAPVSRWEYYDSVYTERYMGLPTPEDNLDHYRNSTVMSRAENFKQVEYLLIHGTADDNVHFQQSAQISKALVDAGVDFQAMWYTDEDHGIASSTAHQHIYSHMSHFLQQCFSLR

`CCCNP(N)(=O)N1CCC[C@H](N)C1=O` (mixture of isomers) [Example 15, (3S, P (RS))-3-amino-1-amino(n-propylamino)phosphinyl-2-piperidone]: the IC50 at dipeptidyl peptidase IV was 7260 nM.
The same measure, in the same setting: next, `NP(N)(=O)N1CCC[C@H](NCc2ccco2)C1=O` [Example 37, (3S)-3-furfurylamino-1-diaminophosphinyl-2-piperidone]: 7710 nM; `CCCC(=O)NP(N)(=O)N1CCC[C@H](N)C1=O` (mixture of isomers) [Example 51, (3S, P (SR))-3-amino-1-amino(n-butanoylamino)phosphinyl-2-piperidone]: 1140 nM.
The same measure, in the same setting: as for `N[C@@H]1CCCN(P(N)(N)=O)C1=O` [Example 42, (3R)-3-amino-1-diaminophosphinyl-2-piperidone], the figure is 48.4 nM; as for `CCCCN[C@H]1CCCN(P(N)(N)=O)C1=O` [Example 31, (3S)-3-n-butylamino-1-diaminophosphinyl-2-piperidone], 3750 nM; as for `N[C@H]1CCCN(P(N)(=O)NC(=O)CCc2ccccc2)C1=O` (mixture of isomers) [Example 59, (3S, P (SR))-3-amino-1-amino(3-phenylpropanoylamino)phosphinyl-2-piperidone], 894 nM.
Same read-out and setting: next, `N[C@H]1CCCCN(P(N)(N)=O)C1=O` [Example 43, (3S)-3-amino-1-diaminophosphinyl-2-perhydroazepinone]: 107 nM.
As to `N[C@H]1CCCN(P(N)(N)=O)C1=O` [Example 1, (3S)-3-amino-1-diaminophosphinyl-2-piperidone], the number of leukocytes is 33 ± 7.8 ×100/millimeter cube in data set [1] (30 mg/kg/day i.v. Days 1 to 5, Day 0 (before cyclophosphamide)); 23 ± 14.2 ×100/millimeter cube in data set [1] (30 mg/kg/day i.v. Days 1 to 5, Day 2); 7 ± 1.8 ×100/millimeter cube in data set [1] (30 mg/kg/day i.v. Days 1 to 5, Day 4); 25 ± 6.2 ×100/millimeter cube in data set [1] (30 mg/kg/day i.v. Days 1 to 5, Day 6); 108 ± 52.8 ×100/millimeter cube in data set [1] (30 mg/kg/day i.v. Days 1 to 5, Day 8); 58 ± 16.1 ×100/millimeter cube in data set [1] (30 mg/kg/day i.v. Days 1 to 5, Day 10). Besides, the number of leukocytes is 81 ± 38.7 ×100/millimeter cube in data set [1] (100 mg/kg/day i.v. Days 1 to 5, Day 0 (before cyclophosphamide)); 25 ± 8.3 ×100/millimeter cube in data set [1] (100 mg/kg/day i.v. Days 1 to 5, Day 2); 13 ± 6.8 ×100/millimeter cube in data set [1] (100 mg/kg/day i.v. Days 1 to 5, Day 4); 124 ± 144.2 ×100/millimeter cube in data set [1] (100 mg/kg/day i.v. Days 1 to 5, Day 6); 139 ± 36.7 ×100/millimeter cube in data set [1] (100 mg/kg/day i.v. Days 1 to 5, Day 8); 49 ± 7.3 ×100/millimeter cube in data set [1] (100 mg/kg/day i.v. Days 1 to 5, Day 10). In addition, the “number of leukocytes relative to Day 0” value in data set [1] (30 mg/kg/day, Day 0) is listed as 100%; in data set [1] (30 mg/kg/day, Day 2) it was 70%; in data set [1] (30 mg/kg/day, Day 4) it was 21%; in data set [1] (30 mg/kg/day, Day 6), 76%; in data set [1] (30 mg/kg/day, Day 8) it was 327%; in data set [1] (30 mg/kg/day, Day 10) it was 176%. Further, the “number of leukocytes relative to Day 0” value in data set [1] (100 mg/kg/day, Day 0) stood at 100%; in data set [1] (100 mg/kg/day, Day 2) it was 31%; in data set [1] (100 mg/kg/day, Day 4), 16%; in data set [1] (100 mg/kg/day, Day 6), 153%; in data set [1] (100 mg/kg/day, Day 8), 172%; in data set [1] (100 mg/kg/day, Day 10), 60%. Moreover, the “effect in increasing the number of leukocytes (in words)” value in data set [1] (data on Day 8) is given as “very effective in increasing the number of leukocytes”. Besides, the “recovery of the number of leukocytes to the initial value after the administration of cyclophosphamide” value in data set [1] (groups treated with 30 and 100 mg/kg/day, control group requires 8 days) is 6 days. Further, at dipeptidyl peptidase IV, the IC50 is 88.5 nM.
Take `CC(C)N[C@H]1CCCN(P(N)(N)=O)C1=O` [Example 28, (3S)-3-isopropylamino-1-diaminophosphinyl-2-piperidone]: the IC50 at dipeptidyl peptidase IV was 17900 nM.
Regarding `Cl.N[C@H]1CCCN(P(N)(N)=O)C1=O` [Example 45, (3S)-3-amino-1-diaminophosphinyl-2-piperidone hydrochloride], the “factor by which the number of leukocytes is larger than that of the control group” value in data set [2] (10 mg/kg/day group) is 4.2; in data set [2] (50 mg/kg/day group) it was 3.8; in data set [2] (250 mg/kg/day group) it was 6.7. In addition, the Number of platelets was 76.0 ± 7.8 ×10000/millimeter cube in data set [2] (setting [3]), 84.9 ± 8.3 ×10000/millimeter cube in data set [2] (setting [4]) and 81.1 ± 8.0 ×10000/millimeter cube in data set [2] (setting [5]). For the same molecule, the number of leukocytes is reported as 25 ± 13 ×100/millimeter cube in data set [2] (setting [3]), 23 ± 19 ×100/millimeter cube in data set [2] (setting [4]) and 40 ± 18 ×100/millimeter cube in data set [2] (setting [5]). Further, the “influence on the number of platelets (in words)” value in data set [2] (normal mice, all the groups (10, 50, 250 mg/kg/day)) is “did not decrease the number of platelets”.
Take `N[C@H]1CCCN(P(N)(=O)NC(=O)C2CCCCC2)C1=O` (mixture of isomers) [Example 55, (3S, P (SR))-3-amino-1-amino(cyclohexanecarbonylamino)phosphinyl-2-piperidone]: at dipeptidyl peptidase IV, the IC50 is 1590 nM.
For the molecule `NP(N)(=O)N1CCC[C@H](NCc2ccccc2)C1=O` [Example 34, (3S)-3-benzylamino-1-diaminophosphinyl-2-piperidone], the IC50 at dipeptidyl peptidase IV was 3900 nM.
The same measure, in the same setting: as for `CC(C)(C)CC(=O)NP(N)(=O)N1CCC[C@H](N)C1=O` (mixture of isomers) [Example 53, (3S, P (SR))-3-amino-1-amino(t-butylacetylamino)phosphinyl-2-piperidone], the figure is 1480 nM; as for `N[C@H]1CCCN(P(N)(=O)Nc2ccccc2)C1=O` (single isomer, unassigned) [Example 17, (3S, P (R or S))-3-amino-1-amino(phenylamino)phosphinyl-2-piperidone], 5590 nM; as for `N[C@H]1CCCN(P(=O)(Nc2ccccc2)Nc2ccccc2)C1=O` [Example 11, (3S)-3-amino-1-bis(phenylamino)phosphinyl-2-piperidone], 43600 nM.
The same measure, in the same setting: as for `COc1ccc(C(=O)NP(N)(=O)N2CCC[C@H](N)C2=O)cc1` (mixture of isomers) [Example 61, (3S, P (SR))-3-amino-1-amino(4-methoxybenzoylamino)phosphinyl-2-piperidone], the figure is 1070 nM.
The same measure, in the same setting: next, `N[C@H]1CCCN(P(N)(=O)NC(=O)COc2ccccc2)C1=O` (mixture of isomers) [Example 57, (3S, P (SR))-3-amino-1-amino(phenoxyacetylamino)phosphinyl-2-piperidone]: 187 nM; `CCCN[C@H]1CCCN(P(N)(N)=O)C1=O` [Example 25, (3S)-3-n-propylamino-1-diaminophosphinyl-2-piperidone]: 3670 nM.
On to `N[C@H]1CCCN(P(N)(=O)NC(=O)c2ccccc2)C1=O` (mixture of isomers) [Example 39, (3S, P (RS))-3-amino-1-amino(benzoylamino)phosphinyl-2-piperidone], for which the IC50 on dipeptidyl peptidase IV was 2400 nM.
As for `CC(=O)NP(N)(=O)N1CCC[C@H](N)C1=O` (single isomer, unassigned) [Example 48, (3S, P (R or S))-3-amino-1-amino(acetylamino)phosphinyl-2-piperidone ½ fumarate], the IC50 on dipeptidyl peptidase IV was 1620 nM.
Still for that read-out and setting: next, `CN[C@H]1CCCN(P(N)(N)=O)C1=O` [Example 22, (3S)-3-methylamino-1-diaminophosphinyl-2-piperidone]: 1410 nM.
